For this test, the system named is Pseudomonas aeruginosa. In words: Antibacterial activity against Pseudomonas aeruginosa PAO1 assessed as inhibition of biofilm formation at 10 ug/ml after 24 hrs. The class given is functional. The note with it: PAO1, 24 h.
Regarding `C[C@H]1[C@H](C)CC[C@]2(C(=O)O)CC[C@]3(C)C(=CC[C@@H]4[C@@]5(C)C[C@@H](O)[C@H](OC(=O)/C=C\c6ccc(O)cc6)C(C)(C)[C@@H]5CC[C@]43C)[C@H]12`, the inhibition at 10 µg/mL was 32%.

Consider `COc1cc(/C=C/C(=O)O[C@H]2[C@H](O)C[C@]3(C)[C@H]4CC=C5[C@@H]6[C@@H](C)[C@H](C)CC[C@]6(C(=O)O)CC[C@@]5(C)[C@]4(C)CC[C@H]3C2(C)C)ccc1O`, for which the inhibition at 10 µg/mL worked out at 48%.

In the case of `C[C@@H]1[C@H]2C3=CC[C@@H]4[C@@]5(C)CC[C@H](OC(=O)/C=C\c6ccc(O)cc6)C(C)(C)[C@@H]5CC[C@@]4(C)[C@]3(C)CC[C@@]2(C(=O)O)CC[C@]1(C)O`, the inhibition at 10 µg/mL turned out to be 62%.

For `C[C@H]1[C@H](C)CC[C@]2(C(=O)O)CC[C@]3(C)C(=CC[C@@H]4[C@@]5(C)C[C@@H](O)[C@H](OC(=O)/C=C/c6ccc(O)cc6)C(C)(C)[C@@H]5CC[C@]43C)[C@H]12`, the inhibition at 10 µg/mL was determined as 35%.

Take `C[C@H]1[C@H](C)CC[C@]2(C(=O)O)CC[C@]3(C)C(=CC[C@@H]4[C@@]5(C)CC[C@H](O)C(C)(C)[C@@H]5CC[C@]43C)[C@H]12` [URSOLIC ACID]: the inhibition at 10 µg/mL amounted to 35%.

The inhibition is the percentage by which the read-out fell short of the control.

Source of the values: ChEMBL document CHEMBL1157230, “Bacterial biofilm inhibitors from Diospyros dendo” (2006).
